Measured values published in EPA's ToxRefDB 2.

How the values were obtained:
rat [1] = conditions: Combined chronic toxicity/carcinogenicity; wistar; Oral; Feed; dose end: 104 week; group: systemic; systemic / in life observation / body weight / body weight + systemic / in life observation / body weight / body weight gain
rat [2] = conditions: Subchronic oral toxicity in rodents, wistar, Feed, dose end: 90 day, group: systemic, systemic / in life observation / body weight / body weight + systemic / in life observation / body weight / body weight gain + systemic / in…
mouse [3] = conditions: Carcinogenicity; cd1; Oral; [Not Specified]; group: systemic; systemic / in life observation / body weight / body weight gain
dog [4] = conditions: Subchronic oral toxicity in nonrodent, beagle, Feed, dose end: 13 week, group: systemic
dog [5] = conditions: Chronic toxicity, beagle, Oral, Feed, dose end: 52 week, group: systemic
rat [6] = conditions: Prenatal developmental toxicity study, sprague dawley, Oral, Gavage/Intubation, dose end: 15 GD
rat [7] = conditions: Multigenerational reproductive toxicity study, wistar, Oral, Feed, dose end: 2 generation
rabbit [8] = conditions: Prenatal developmental toxicity study, new zealand white, Oral, Gavage/Intubation, dose end: 19 GD
rat [9] = conditions: Sub-acute dermal toxicity, sprague dawley, Topical, dose end: 21 day, group: systemic
dog [10] = conditions: Subchronic oral toxicity in nonrodent, beagle, Capsule, dose end: 96 day, group: systemic, systemic / in life observation / body weight / body weight gain + systemic / in life observation / clinical signs / emaciation + systemic / …
rat [11] = conditions: Subchronic oral toxicity in rodents, sprague dawley, Feed, dose end: 90 day, group: systemic, systemic / clinical chemistry / albumin / albumin + systemic / in life observation / body weight / body weight gain + systemic / organ …
rat [12] = conditions: Combined chronic toxicity/carcinogenicity, sprague dawley, Oral, Feed, dose end: 104 week, group: systemic
rabbit [13] = conditions: Prenatal developmental toxicity study, new zealand white, Oral, Gavage/Intubation, dose end: 18 GD
dog [14] = conditions: Chronic toxicity; beagle; Oral; Feed; dose end: 104 week; group: systemic; systemic / clinical chemistry / alanine aminotransferase (alt/sgpt) / alanine aminotransferase (alt/sgpt) + systemic / clinical chemistry / …
mouse [15] = conditions: Carcinogenicity, cd1, Oral, Feed, dose end: 80 week, group: systemic
rat [16] = conditions: Subchronic oral toxicity in rodents, wistar, Feed, dose end: 90 day, group: systemic
dog [17] = conditions: Subchronic oral toxicity in nonrodent, beagle, Feed, dose end: 118 day, group: systemic
rat [18] = conditions: Prenatal developmental toxicity study, sprague dawley, Oral, Gavage/Intubation, dose end: 19 GD
[19] = systemic / pathology microscopic / bone marrow / hyperplasia + systemic / pathology microscopic / liver / hematopoietic cell proliferation
[20] = systemic / pathology microscopic / bone marrow / hyperplasia + systemic / pathology microscopic / liver / hematopoietic cell proliferation…
[21] = systemic / in life observation / food consumption / food consumption
[22] = group: developmental, developmental / developmental malformation / bone / incomplete ossification + systemic / in life observation / body weight / fetal weight
[23] = group: maternal, systemic / in life observation / body weight / body weight gain + systemic / in life observation / food consumption / food consumption
[24] = group: offspring, developmental / developmental malformation / general / runts + systemic / in life observation / body weight / offspring (pup) weight + …
[25] = group: offspring, developmental / developmental malformation / general / runts + systemic / organ weight / thymus / absolute + systemic / organ weight / …
[26] = group: reproductive, reproductive / offspring survival early / birth index / live birth index
[27] = group: developmental, developmental / developmental malformation / bone / supernumerary + developmental / developmental malformation / bone / extra ossification …
[28] = group: maternal, systemic / in life observation / body weight / body weight gain + systemic / in life observation / clinical signs / abnormal feces
[29] = group: maternal, systemic / in life observation / body weight / body weight gain + systemic / in life observation / clinical signs / abnormal feces + …
[30] = systemic / in life observation / body weight / body weight gain
[31] = systemic / in life observation / clinical signs / erythema
[32] = systemic / pathology microscopic / testes / adenoma + systemic / in life observation / body weight / body weight + systemic / in life …
[33] = group: developmental, developmental / developmental malformation / bone / incomplete ossification
[34] = group: maternal, reproductive / reproductive performance / postimplantation loss / postimplantation loss + reproductive / reproductive performance / …
[35] = systemic / organ weight / liver / absolute
[36] = systemic / organ weight / liver / absolute + systemic / organ weight / liver / relative to body weight
[37] = systemic / clinical chemistry / alanine aminotransferase (alt/sgpt) / alanine aminotransferase (alt/sgpt) + systemic / clinical chemistry / …
[38] = systemic / clinical chemistry / creatinine / creatinine + systemic / clinical chemistry / urea nitrogen / urea nitrogen
[39] = systemic / clinical chemistry / creatinine / creatinine + systemic / clinical chemistry / urea nitrogen / urea nitrogen + systemic / …
[40] = group: developmental, developmental / developmental malformation / bone / bent + developmental / developmental malformation / bone / full supernumerary + …
[41] = group: maternal, reproductive / reproductive performance / resorptions / resorptions + systemic / in life observation / clinical signs / abnormal movements…

`C/C(=N\NC(=O)Nc1cc(F)cc(F)c1)c1ncccc1C(=O)O` [Diflufenzopyr] gave an LEL (rat [1]) of 69 mg/kg/day, an LOAEL (rat [1]) greater than 518 mg/kg/day and an NEL (rat [1]) of 22 mg/kg/day. For the same molecule, the NOAEL (rat [1]) was no less than 518 mg/kg/day, the LEL (rat [2]) was 725 mg/kg/day and the LOAEL (rat [2]) was 725 mg/kg/day. The NEL (rat [2]) was 352 mg/kg/day, the NOAEL (rat [2]) was 352 mg/kg/day and the LEL (mouse [3]) was 1000 mg/kg/day. For the same molecule, the LOAEL (mouse [3]) was greater than 1000 mg/kg/day, the NEL (mouse [3]) was 500 mg/kg/day and the NOAEL (mouse [3]) was no less than 1000 mg/kg/day. The LEL (dog [4]; [19]) was 403 mg/kg/day, the LOAEL (dog [4]; [19]) was 403 mg/kg/day and the NEL (dog [4]; [20]) was 58 mg/kg/day. The NOAEL (dog [4]; [20]) was 58 mg/kg/day, the LOAEL (dog [5]; systemic / hematology / reticulocyte / reticulocyte + systemic / pathology microscopic / bone marrow / hyperplasia) was 299 mg/kg/day and the NOAEL (dog [5]; systemic / hematology / reticulocyte / reticulocyte + systemic / pathology microscopic / bone marrow / hyperplasia + systemic / hematology…) was 26 mg/kg/day. The LEL (dog [5]; [21]) was 26 mg/kg/day, the NEL (dog [5]; [21]) was less than 26 mg/kg/day and the LEL (rat [6]; [22]) was 1000 mg/kg/day. The LOAEL (rat [6]; [22]) was 1000 mg/kg/day, the NEL (rat [6]; [22]) was 300 mg/kg/day and the NOAEL (rat [6]; [22]) was 300 mg/kg/day. The LEL (rat [6]; [23]) was 1000 mg/kg/day, the LOAEL (rat [6]; [23]) was 1000 mg/kg/day and the NEL (rat [6]; [23]) was 300 mg/kg/day. The NOAEL (rat [6]; [23]) was 300 mg/kg/day, the LEL (rat [7]; [24]) was 552 mg/kg/day and the LOAEL (rat [7]; [24]) was 552 mg/kg/day. The NEL (rat [7]; [25]) was 126 mg/kg/day, the NOAEL (rat [7]; [25]) was 126 mg/kg/day and the LEL (rat [7]; [26]) was 552 mg/kg/day. For the same molecule, the LOAEL (rat [7]; [26]) was 552 mg/kg/day, the NEL (rat [7]; [26]) was 126 mg/kg/day and the NOAEL (rat [7]; [26]) was 126 mg/kg/day. For the same molecule, the LOAEL (rabbit [8]; group: developmental, developmental / developmental malformation / bone / supernumerary) was 300 mg/kg/day, the LEL (rabbit [8]; [27]) was 300 mg/kg/day and the NEL (rabbit [8]; [27]) was 100 mg/kg/day. For the same molecule, the NOAEL (rabbit [8]; [27]) was 100 mg/kg/day, the LEL (rabbit [8]; [28]) was 100 mg/kg/day and the LOAEL (rabbit [8]; [28]) was 100 mg/kg/day. The NEL (rabbit [8]; [29]) was 30 mg/kg/day and the NOAEL (rabbit [8]; [29]) was 30 mg/kg/day.
In the case of `CCCCCCCCCCCCN=C(N)N` [Dodecylguanidine], the LOAEL (rat [9]; [30]) was 50 mg/kg/day, the NOAEL (rat [9]; systemic / in life observation / body weight / body weight gain + systemic / in life observation / clinical signs / desquamation + systemic…) was 25 mg/kg/day and the LEL (rat [9]; [31]) was 12.5 mg/kg/day. For the same molecule, the NEL (rat [9]; [31]) was less than 12.5 mg/kg/day, the LEL (dog [10]) was 100 mg/kg/day and the LOAEL (dog [10]) was 100 mg/kg/day. For the same molecule, the NEL (dog [10]) was 25 mg/kg/day and the NOAEL (dog [10]) was 25 mg/kg/day.
`CCOC1Oc2ccc(OS(C)(=O)=O)cc2C1(C)C` (configuration not stated) [Ethofumesate] was tested, and the LEL (rat [11]) was 1900 mg/kg/day, the LOAEL (rat [11]) was 1900 mg/kg/day and the NEL (rat [11]) was 190 mg/kg/day. For the same molecule, the NOAEL (rat [11]) was 190 mg/kg/day, the LOAEL (rat [12]; [30]) was 469 mg/kg/day and the NOAEL (rat [12]; systemic / in life observation / body weight / body weight gain + systemic / clinical chemistry / alkaline phosphatase (alp/alk) / alkaline …) was 127 mg/kg/day. It also gave an LEL (rat [12]; [32]) of 97 mg/kg/day, an NEL (rat [12]; [32]) of less than 97 mg/kg/day and an LEL (rabbit [13]; [33]) of 300 mg/kg/day. For the same molecule, the LOAEL (rabbit [13]; [33]) was 300 mg/kg/day, the NEL (rabbit [13]; [33]) was 30 mg/kg/day and the NOAEL (rabbit [13]; [33]) was 30 mg/kg/day. It also gave an LEL (rabbit [13]; [34]) of 300 mg/kg/day, an LOAEL (rabbit [13]; [34]) of 300 mg/kg/day and an NEL (rabbit [13]; [34]) of 30 mg/kg/day. For the same molecule, the NOAEL (rabbit [13]; [34]) was 30 mg/kg/day, the LEL (dog [14]) was 619 mg/kg/day and the LOAEL (dog [14]) was 619 mg/kg/day. The NEL (dog [14]) was 109 mg/kg/day, the NOAEL (dog [14]) was 109 mg/kg/day and the LEL (mouse [15]; [35]) was 204 mg/kg/day. It also gave an NEL (mouse [15]; [35]) of less than 204 mg/kg/day, an LOAEL (mouse [15]; [36]) greater than 2140 mg/kg/day and an NOAEL (mouse [15]; [36]) of no less than 2140 mg/kg/day.
`CNC.Cc1cc(Cl)ccc1OCC(=O)O` [MCPA-dimethylammonium] showed an LOAEL (rat [16]; [37]) of 208 mg/kg/day, an NOAEL (rat [16]; [37]) of 42 mg/kg/day and an LEL (rat [16]; [36]) of 4 mg/kg/day. It also gave an NEL (rat [16]; [36]) of less than 4 mg/kg/day, an LEL (dog [17]; [38]) of 2.4 mg/kg/day and an LOAEL (dog [17]; [38]) of 2.4 mg/kg/day. For the same molecule, the NEL (dog [17]; [39]) was 0.6 mg/kg/day, the NOAEL (dog [17]; [39]) was 0.6 mg/kg/day and the LEL (rat [18]; [40]) was 185 mg/kg/day. It also gave an LOAEL (rat [18]; [40]) of 185 mg/kg/day, an NEL (rat [18]; [40]) of 62 mg/kg/day and an NOAEL (rat [18]; [40]) of 62 mg/kg/day. It also gave an LEL (rat [18]; [41]) of 185 mg/kg/day, an LOAEL (rat [18]; [41]) of 185 mg/kg/day and an NEL (rat [18]; [41]) of 62 mg/kg/day. The NOAEL (rat [18]; [41]) was 62 mg/kg/day.
